ChEMBL document CHEMBL2150984, “Synthesis of fluorescent ristocetin aglycon derivatives with remarkable antibacterial and antiviral activities” (Eur J Med Chem, 2012)
In brackets after ≈: the same amount, converted by molar mass.

Legend:
[1] = system: H3N2 subtype; experiment: Antiviral activity against Influenza A/HK/7/87 infected in MDCK cells assessed as inhibition of virus-induced cytopathic effect measured on day 3 post infection by MTS assay; format: functional, organism-based; settings: A/Hong Kong/7/1987(H3N2), 72 h
[2] = system: Influenza B virus; experiment: Antiviral activity against Influenza B/HK/5/72 infected in MDCK cells assessed as inhibition of virus-induced cytopathic effect measured on day 3 post infection by MTS assay; format: functional, cell-based; settings: B/Hong Kong/05/1972, MDCK, 72 h
[3] = Cytotoxicity against MDCK cells assessed as minimum concentration required to cause microscopically detectable alteration measured on day 3 post infection by MTS assay; format: cell-based, Canis lupus familiaris; settings: dog
[4] = system: Influenza A virus; experiment: Antiviral activity against Influenza A/PR/8/34 infected in MDCK cells assessed as inhibition of virus-induced cytopathic effect measured on day 3 post infection by MTS assay; format: functional, organism-based; settings: A/Puerto Rico/8/1934(H1N1), 72 h
[5] = system: Enterococcus faecalis; experiment: Antibacterial activity against Enterococcus faecalis ATCC 51299 expressing vanB gene by broth microdilution method; format: functional
[6] = system: Staphylococcus epidermidis; experiment: Antibacterial activity against Staphylococcus epidermidis expressing mecA gene by broth microdilution method; format: functional
[7] = system: Enterococcus faecalis; experiment: Antibacterial activity against Enterococcus faecalis ATCC 15376 expressing vanA gene by broth microdilution method; format: functional
[8] = system: Staphylococcus epidermidis; experiment: Antibacterial activity against biofilm forming Staphylococcus epidermidis ATCC 35984 by broth microdilution method; format: functional
[9] = system: Enterococcus faecalis; experiment: Antibacterial activity against Enterococcus faecalis ATCC 29212 by broth microdilution method; format: functional
[10] = system: Bacillus subtilis; experiment: Antibacterial activity against Bacillus subtilis ATCC 6633 by broth microdilution method; format: functional
[11] = system: Staphylococcus aureus; experiment: Antibacterial activity against methicillin-sensitive Staphylococcus aureus ATCC 29213 by broth microdilution method; format: functional
[12] = system: Staphylococcus aureus; experiment: Antibacterial activity against methicillin-resistant Staphylococcus aureus ATCC 33591 by broth microdilution method; format: functional

COC(=O)[C@H]1NC(=O)[C@H]2NC(=O)[C@H](NC(=O)[C@@H]3NC(=O)[C@H]4NC(=O)[C@H](NC(=O)[C@H](N)c5ccc(O)c(c5)Oc5cc4cc(O)c5C)[C@H](O)c4ccc(cc4)Oc4cc3cc(c4O)Oc3ccc(cc3)[C@H]2O)c2ccc(O)c(c2)-c2c(O)cc(O)cc21 [AGLYCORISTOCETIN]
EC50 [1]: 6800 nM | EC50 [2]: > 100000 nM | MCC at 3 days [3]: > 100 µM | EC50 [4]: 2300 nM

COC(=O)[C@H]1NC(=O)[C@H]2NC(=O)[C@H](NC(=O)[C@@H]3NC(=O)[C@H]4NC(=O)[C@H](NC(=O)[C@H](n5cc6cc7ccccc7cc6c5Sc5ncccn5)c5ccc(O)c(c5)Oc5cc4cc(O)c5C)[C@H](O)c4ccc(cc4)Oc4cc3cc(c4O)Oc3ccc(cc3)[C@H]2O)c2ccc(O)c(c2)-c2c(O)cc(O)cc21
EC50 [1]: 360 nM | MIC [5]: 2 µg/mL (≈ 1.39 µM) | MIC [6]: 2 µg/mL (≈ 1.39 µM) | MIC [7]: 2 µg/mL (≈ 1.39 µM) | EC50 [2]: > 100000 nM | MIC [8]: 4 µg/mL (≈ 2.79 µM) | MCC at 3 days [3]: ≥ 0.8 µM | EC50 [4]: 80 nM | MIC [9]: 2 µg/mL (≈ 1.39 µM) | MIC [10]: 2 µg/mL (≈ 1.39 µM) | MIC [11]: 2 µg/mL (≈ 1.39 µM) | MIC [12]: 2 µg/mL (≈ 1.39 µM)

COC(=O)[C@H]1NC(=O)[C@H]2NC(=O)[C@H](NC(=O)[C@@H]3NC(=O)[C@H]4NC(=O)[C@H](NC(=O)[C@H](n5cc6cc7ccccc7cc6c5Sc5ccccc5)c5ccc(O)c(c5)Oc5cc4cc(O)c5C)[C@H](O)c4ccc(cc4)Oc4cc3cc(c4O)Oc3ccc(cc3)[C@H]2O)c2ccc(O)c(c2)-c2c(O)cc(O)cc21
EC50 [1]: > 100000 nM | MIC [5]: 0.5 µg/mL (≈ 0.349 µM) | MIC [6]: 1 µg/mL (≈ 0.698 µM) | MIC [7]: 0.5 µg/mL (≈ 0.349 µM) | EC50 [2]: > 100000 nM | MIC [8]: 1 µg/mL (≈ 0.698 µM) | MCC at 3 days [3]: 20 µM | EC50 [4]: > 100000 nM | MIC [9]: 0.5 µg/mL (≈ 0.349 µM) | MIC [10]: 0.5 µg/mL (≈ 0.349 µM) | MIC [11]: 0.5 µg/mL (≈ 0.349 µM) | MIC [12]: 0.5 µg/mL (≈ 0.349 µM)

CN[C@H](CC(C)C)C(=O)N[C@H]1C(=O)N[C@@H](CC(N)=O)C(=O)N[C@H]2C(=O)N[C@H]3C(=O)N[C@H](C(=O)N[C@H](C(=O)O)c4cc(O)cc(O)c4-c4cc3ccc4O)[C@H](O)c3ccc(c(Cl)c3)Oc3cc2cc(c3O[C@@H]2O[C@H](CO)[C@@H](O)[C@H](O)[C@H]2O[C@H]2C[C@](C)(N)[C@H](O)[C@H](C)O2)Oc2ccc(cc2Cl)[C@H]1O [VANCOMYCIN]
MIC [5]: 128 µg/mL (≈ 88.3 µM) | MIC [7]: 256 µg/mL (≈ 177 µM) | MIC [9]: 1 µg/mL (≈ 0.69 µM) | MIC [10]: 0.5 µg/mL (≈ 0.345 µM)

CC(=O)N[C@H]1[C@H]([C@H](O)[C@H](O)CO)OC(C(=O)O)=C[C@@H]1NC(=N)N [ZANAMIVIR]
EC50 [1]: 1800 nM | EC50 [2]: 34000 nM | MCC at 3 days [3]: > 100 µM | EC50 [4]: 300 nM

COC(=O)[C@H]1NC(=O)[C@H]2NC(=O)[C@H](NC(=O)[C@@H]3NC(=O)[C@H]4NC(=O)[C@H](NC(=O)[C@H](n5cc6ccccc6c5Sc5ncccn5)c5ccc(O)c(c5)Oc5cc4cc(O)c5C)[C@H](O)c4ccc(cc4)Oc4cc3cc(c4O)Oc3ccc(cc3)[C@H]2O)c2ccc(O)c(c2)-c2c(O)cc(O)cc21
EC50 [1]: 1800 nM | MIC [5]: 0.5 µg/mL (≈ 0.361 µM) | MIC [6]: 0.5 µg/mL (≈ 0.361 µM) | MIC [7]: 0.5 µg/mL (≈ 0.361 µM) | EC50 [2]: > 100000 nM | MIC [8]: 2 µg/mL (≈ 1.44 µM) | MCC at 3 days [3]: 20 µM | EC50 [4]: 300 nM | MIC [9]: 0.5 µg/mL (≈ 0.361 µM) | MIC [10]: 0.5 µg/mL (≈ 0.361 µM) | MIC [11]: 1 µg/mL (≈ 0.722 µM) | MIC [12]: 1 µg/mL (≈ 0.722 µM)

NC12CC3CC(CC(C3)C1)C2 [AMANTADINE]
EC50 [1]: 2300 nM | EC50 [2]: > 500000 nM | MCC at 3 days [3]: > 500 µM | EC50 [4]: 7600 nM
